Laboratory results published in patent US20210106547A1, “Managing Cardiovascular Conditions Associated with Kidney Disease” (Emory University, priority 2019, published 2021).
“Also recorded” adds a separate entry of the source.

Legend:
C57BL/6 wild type mice [1] = assay: Heart size and heart weight at sacrifice (cardiac hypertrophy); assay type: in vivo, mouse
Protocol: White bar is vehicle and black bar is DMTU treatment.
(§1) Experiment of C57BL/6 wild type mice. Mice underwent 5/6 nephrectomy surgery. Mice were fed 14% protein diet (0 weeks to 2 weeks), 23% protein diet (2 weeks to 6 weeks), and 40% protein diet (6 weeks to 8 weeks). Mice drank 1% NaCl water one week to six weeks after second surgery, and dimethylthiourea (DMTU; UT-A inhibitor) was administered by osmotic mini pump.
(§2) Since an increase in UT-A is associated with an increase in fibrosis proteins in vitro and in vivo, experiments were performed to determine whether inhibition of UT-A could prevent fibrosis in the heart of CKD mice. Mice were randomly divided into four cohorts: sham+vehicle, sham+DMTU, 5/6Nx+vehicle, and 5/6Nx+DMTU. Mini-pumps were used for DMTU administration (100 mg/kgBW/day). The phenotypic characteristics of mice were determined 8 weeks after completing the 5/6Nx (Table 1).
Inhibition of UT-A suppressed CKD-induced increases in SBP in 5/6Nx mice (5/6Nx+DMTU: 119±3 mmHg vs 5/6Nx+vehicle: 130±2 mmHg, P<0.05) (FIG. 3A). […] DMTU suppressed the CKD-induced increase in heart weight (5/6Nx+DMTU: 3.74±0.12 mg/g vs 5/6Nx+vehicle: 4.50±0.09 mg/g, P<0.001) (FIG. 3D). Since the BW could be altered by either edema (in CKD) or dehydration (by DMTU), dry brain weight was also used to normalize heart weight.

UT-B = molecular target: T1, UT-B (Homo sapiens, UniProt Q13336); settings: cited from earlier work
T1 sequence (Q13336 1-389): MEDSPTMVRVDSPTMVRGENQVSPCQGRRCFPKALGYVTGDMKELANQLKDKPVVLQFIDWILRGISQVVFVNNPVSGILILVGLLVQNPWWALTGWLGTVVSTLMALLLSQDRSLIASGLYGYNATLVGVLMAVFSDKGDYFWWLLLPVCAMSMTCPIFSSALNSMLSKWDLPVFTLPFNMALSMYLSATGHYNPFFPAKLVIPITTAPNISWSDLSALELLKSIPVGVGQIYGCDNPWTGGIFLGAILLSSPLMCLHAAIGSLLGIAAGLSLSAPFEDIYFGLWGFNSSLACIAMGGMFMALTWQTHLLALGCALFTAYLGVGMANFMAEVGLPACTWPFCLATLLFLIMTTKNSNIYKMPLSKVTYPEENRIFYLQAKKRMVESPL

C57BL/6 wild type mice [2] = assay: Cardiac echocardiographic analysis of mice after 5/6 nephrectomy and DMTU treatment; assay type: in vivo, mouse; settings: for LVEDV: LV end-diastolic volume; for LVESD: LV end-systolic dimension; for LVESV: LV end-systolic volume; for FS: fractional shortening; for IVSd / IVSs: intraventricular septum; for PWd / PWs: posterior wall thickness; for LVMI: ratio of LVM to BW
Protocol: as §1, §2
Both intraventricular septum (IVS) and posterior wall thicknesses (PW) were greatest in 5/6Nx+vehicle than all other three groups (Table 2).

C57BL/6 wild type mice [3] = assay: Blood pressure by tail cuff method at 8 weeks after the second surgery; assay type: in vivo, mouse
Protocol: Systolic blood pressure at 8 weeks after the second surgery.
as §1, §2

Rats = settings: cited from earlier work
C57BL/6 wild type mice [4] = assay: Immunohistochemistry staining of heart for collagen type 1 and α-SMA; assay type: in vivo, mouse; settings: 5/6Nx + DMTU compared with 5/6Nx + vehicle
Protocol: as §1, §2

C57BL/6 wild type mice [5] = assay: Phenotypic characteristics of sham and 5/6Nx mice 8 weeks after 5/6 nephrectomy, DMTU by osmotic mini pump; assay type: in vivo, mouse; settings: for 24 hr intake volume/BW / 24 hr urine osmolality / 24 hr urine volume/BW / BUN / Plasma osmolality / Urine urea / Volume in-out balance/BW: 8 weeks
Protocol: as §1, §2

C57BL/6 wild type mice [6] = assay: Masson's Trichrome staining of mouse heart tissues, fibrosis area; assay type: in vivo; settings: 5/6Nx + DMTU, 5/6Nx+vehicle 1.04±0.15
Protocol: Pictures were observed by ×200 magnification. Scale bar is 100 μm. Dark color indicated fibrosis in Masson's staining.
as §1, §2

UT-A1 = molecular target: T2, UT-A1 (Homo sapiens, UniProt Q15849); settings: cited from earlier work
T2 sequence (Q15849 1-920): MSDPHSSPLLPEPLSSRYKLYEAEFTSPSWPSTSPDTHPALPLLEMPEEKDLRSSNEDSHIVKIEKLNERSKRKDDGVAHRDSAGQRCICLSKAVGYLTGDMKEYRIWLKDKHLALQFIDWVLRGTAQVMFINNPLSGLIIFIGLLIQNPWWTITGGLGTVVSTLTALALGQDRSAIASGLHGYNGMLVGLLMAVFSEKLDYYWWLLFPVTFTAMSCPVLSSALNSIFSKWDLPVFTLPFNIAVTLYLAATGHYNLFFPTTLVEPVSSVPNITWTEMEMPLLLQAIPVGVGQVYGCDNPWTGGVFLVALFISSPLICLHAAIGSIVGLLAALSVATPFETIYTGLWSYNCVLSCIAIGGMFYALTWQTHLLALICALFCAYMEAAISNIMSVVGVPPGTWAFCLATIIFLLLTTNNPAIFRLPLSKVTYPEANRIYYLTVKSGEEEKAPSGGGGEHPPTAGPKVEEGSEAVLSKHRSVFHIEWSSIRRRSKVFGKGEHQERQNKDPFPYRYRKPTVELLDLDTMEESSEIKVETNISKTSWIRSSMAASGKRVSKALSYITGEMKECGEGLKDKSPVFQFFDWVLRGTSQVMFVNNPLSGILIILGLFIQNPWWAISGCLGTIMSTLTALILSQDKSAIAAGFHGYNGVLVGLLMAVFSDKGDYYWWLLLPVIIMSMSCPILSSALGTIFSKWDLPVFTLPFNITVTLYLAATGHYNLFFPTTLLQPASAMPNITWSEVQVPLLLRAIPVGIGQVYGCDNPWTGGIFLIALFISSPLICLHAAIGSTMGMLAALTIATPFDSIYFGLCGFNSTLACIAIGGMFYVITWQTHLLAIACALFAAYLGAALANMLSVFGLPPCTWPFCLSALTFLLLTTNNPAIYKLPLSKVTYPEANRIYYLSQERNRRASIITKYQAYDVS

C57BL/6 wild type mice [7] = assay: Quantitative mRNA expression in mouse hearts by real-time PCR; assay type: in vivo
Protocol: FIG. 4E show quantitative mRNA expression in mouse hearts performed by real-time PCR. Individual gene expression was calculated by ΔΔcq and standardized by housekeeping gene 18s.
Angiotensin converting enzyme (ACE) gene expression was calculated by ΔΔcq and standardized by housekeeping gene 18s.
as §1
Since an increase in UT-A is associated with an increase in fibrosis proteins in vitro and in vivo, experiments were performed to determine whether inhibition of UT-A could prevent fibrosis in the heart of CKD mice. […] The phenotypic characteristics of mice were determined 8 weeks after completing the 5/6Nx (Table 1).
In uremic cardiomyopathy, increased cardiac fibrosis and hypertrophy are associated with upregulation of the renin-angiotensin system (RAS). To identify whether the ability of UT-A to reduce cardiac fibrosis is related to the RAS, the mRNA expression of angiotensin converting enzyme (ACE) was measured in the heart of 4 groups of mice.

Structure (SMILES): CNC(=S)NC [DMTU, N,N′-dimethylthiourea]
- Ratio of heart weight to dry brain weight (C57BL/6 wild type mice [1]; 5/6Nx + DMTU, vs 5/6Nx+vehicle 1.34±0.09, P<0.01): 1.04 ± 0.04 mg/mg
- Ratio of heart weight/body weight (BW) (C57BL/6 wild type mice [1]; 5/6Nx + DMTU, vs 5/6Nx+vehicle 4.50±0.09, P<0.001): 3.74 ± 0.12 mg/g
- CKD-induced increase in heart size (C57BL/6 wild type mice [1]; 5/6Nx mice, at sacrifice): suppressed the CKD-induced increase in heart size
- Inhibition of UT-B (UT-B): inhibits
- CKD-induced increases of LVESD, LVEDV, LVESV and LVMI (C57BL/6 wild type mice [2]; 5/6Nx + DMTU): eliminated these increases
- LVEDD (C57BL/6 wild type mice [2]; 5/6Nx + DMTU): 3.43 ± 0.06 mm
- LVM (C57BL/6 wild type mice [2]; 5/6Nx + DMTU): 89 ± 3 mg
- LVEDV (C57BL/6 wild type mice [2]; 5/6Nx + DMTU): 62.6 ± 0.3 µL
- LVESD (C57BL/6 wild type mice [2]; 5/6Nx + DMTU): 2.77 ± 0.02 mm
- LVESV (C57BL/6 wild type mice [2]; 5/6Nx + DMTU): 23.6 ± 0.3 µL
- FS (C57BL/6 wild type mice [2]; 5/6Nx + DMTU): 30 ± 0.5 %
- IVSd (C57BL/6 wild type mice [2]; 5/6Nx + DMTU): 0.49 ± 0.01 mm
- IVSs (C57BL/6 wild type mice [2]; 5/6Nx + DMTU): 1.08 ± 0.00 mm
- PWd (C57BL/6 wild type mice [2]; 5/6Nx + DMTU): 0.55 ± 0.01 mm
- PWs (C57BL/6 wild type mice [2]; 5/6Nx + DMTU): 0.52 ± 0.01 mm
- LVMI (C57BL/6 wild type mice [2]; 5/6Nx + DMTU): 3.44 ± 0.13 mg/g
- Percentage of fractional shortening (FS), effect (C57BL/6 wild type mice [2]; CKD heart): restored FS to the normal range
- Pericardial effusion (C57BL/6 wild type mice [2]; mice of the cohorts other than 5/6Nx+vehicle (incl. sham+DMTU, 5/6Nx+DMTU)): none of the mice
- LVEDD (C57BL/6 wild type mice [2]; sham + DMTU): 3.80 ± 0.18 mm
- LVM (C57BL/6 wild type mice [2]; sham + DMTU): 97 ± 7 mg
- LVEDV (C57BL/6 wild type mice [2]; sham + DMTU): 57.3 ± 1.8 µL
- LVESD (C57BL/6 wild type mice [2]; sham + DMTU): 2.45 ± 0.14 mm
- LVESV (C57BL/6 wild type mice [2]; sham + DMTU): 21.8 ± 1.1 µL
- FS (C57BL/6 wild type mice [2]; sham + DMTU): 33 ± 0.5%
- IVSd (C57BL/6 wild type mice [2]; sham + DMTU): 0.44 ± 0.00 mm
- IVSs (C57BL/6 wild type mice [2]; sham + DMTU): 1.05 ± 0.00 mm
- PWd (C57BL/6 wild type mice [2]; sham + DMTU): 0.53 ± 0.00 mm
- PWs (C57BL/6 wild type mice [2]; sham + DMTU): 0.52 ± 0.03 mm
- LVMI (C57BL/6 wild type mice [2]; sham + DMTU): 3.73 ± 0.15 mg/g
- SBP (systolic blood pressure) (C57BL/6 wild type mice [3]; 5/6Nx + DMTU, 8 weeks, vs 5/6Nx+vehicle 130±2, P<0.05): 119±3 mmHg
- Effect on DBP (diastolic blood pressure) (C57BL/6 wild type mice [3]; sham or 5/6Nx mice): did not affect DBP
- Diuresis compared with furosemide (Rats): greater diuresis
- Side effects like hyponatremia or hypokalemia (Rats): did not show side effects
- Collagen type I and α-smooth muscle actin (SMA) proteins in heart (C57BL/6 wild type mice [4]): less
- Volume in-out balance relative to 5/6Nx+vehicle (C57BL/6 wild type mice [5]; 5/6Nx + DMTU): the balance was less
- 24 hr intake volume/BW (C57BL/6 wild type mice [5]; 5/6Nx + DMTU): 0.265 ± 0.028 mL/g
- 24 hr urine osmolality (C57BL/6 wild type mice [5]; 5/6Nx + DMTU): 1206 ± 116 mOsmol/kg H2O
- 24 hr urine volume/BW (C57BL/6 wild type mice [5]; 5/6Nx + DMTU): 0.170 ± 0.013 mL/g
- BUN (C57BL/6 wild type mice [5]; 5/6Nx + DMTU): 63.7 ± 4.6 mg/dL
- Plasma osmolality (C57BL/6 wild type mice [5]; 5/6Nx + DMTU): 329 ± 3 mOsmol/kg H2O
- Urine urea (C57BL/6 wild type mice [5]; 5/6Nx + DMTU): 926 ± 95 mmol/L
- Volume in-out balance/BW (C57BL/6 wild type mice [5]; 5/6Nx + DMTU): 0.114 ± 0.014 mL/g
- Increase of urine volume and decrease of urine osmolality (C57BL/6 wild type mice [5]; CKD mice): absent
- BUN values with DMTU treatment vs. vehicle treatment (C57BL/6 wild type mice [5]; either sham or CKD mice): no significant difference
- 24 hr intake volume/BW (C57BL/6 wild type mice [5]; sham + DMTU): 0.129 ± 0.006 mL/g
- 24 hr urine osmolality (C57BL/6 wild type mice [5]; sham + DMTU): 2378 ± 133 mOsmol/kg H2O
- 24 hr urine volume/BW (C57BL/6 wild type mice [5]; sham + DMTU): 0.058 ± 0.010 mL/g
- BUN (C57BL/6 wild type mice [5]; sham + DMTU): 31.3 ± 2.8 mg/dL
- Plasma osmolality (C57BL/6 wild type mice [5]; sham + DMTU): 322 ± 1 mOsmol/kg H2O
- Urine urea (C57BL/6 wild type mice [5]; sham + DMTU): 1555 ± 128 mmol/L
- Volume in-out balance/BW (C57BL/6 wild type mice [5]; sham + DMTU): 0.081 ± 0.010 mL/g
- Effect on urine osmolality (C57BL/6 wild type mice [5]; sham mice): decreased urine osmolality
- Effect on urine volume (C57BL/6 wild type mice [5]; sham mice): increased urine volume
- Percentage of fibrosis area in heart (C57BL/6 wild type mice [6]): 0.57±0.07%
- Inhibition of UT-A1 (UT-A1): inhibits
- mRNA expression of fibrosis related genes (collagen 1A1, collagen 4A1, fibronectin and α-SMA) in heart (C57BL/6 wild type mice [7]; 5/6Nx + DMTU compared with 5/6Nx + vehicle): less than 5/6Nx+vehicle mice
- mRNA expression of angiotensin converting enzyme (ACE) in heart (C57BL/6 wild type mice [7]; sham and 5/6Nx groups, DMTU vs vehicle): significantly abolished ACE expression; also recorded: suppressed an increase in ACE mRNA expression
